These results are taken from patent US20250154169A1, “COMPOUNDS AND METHODS FOR MODULATING SPLICING” (REMIX THERAPEUTICS INC., priority 2021, published 2025).

Read-outs that look alike come from different tables or passages of the source.

Assay type in all cases: cell-based, human
In experiment [1] the test system is HTT mRNA. The experiment can be described thus: Splicing RT-qPCR assay, HTT canonical (CJ) and alternative (AJ) junction mRNA. The following applies: Homo sapiens, Table 3B; for AC50: alternative junction mRNA, read-out: HTT AJ (AC50, increase in AJ mRNA); for IC50: canonical junction mRNA, read-out: HTT CJ (IC50, decrease in CJ mRNA). In outline:
(§1)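 Canonical (CJ) and alternative-exon (AJ) junction mRNAs quantified by one-step RT-qPCR in cell lysates, normalized to housekeeping PPIA for A673 and GAPDH or GUSB for K562. Cells were exposed 24 h at 37 °C to 11-point 3-fold compound series from 10 uM final, with DMSO at or below 0.25%.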
On the technique in general: In qPCR the cycle at which signal appears reflects the starting amount.

In another experiment the test system is MYB mRNA. In words: Splicing RT-qPCR assay, MYB canonical (CJ) and alternative (AJ) junction mRNA. The note with it: Homo sapiens; for AC50: alternative junction mRNA, read-out: MYB AJ (AC50, increase in AJ mRNA). In outline:
as §1

For a further experiment, the system named is Target C mRNA. The experiment can be described thus: Splicing RT-qPCR gene panel, Target C canonical junction (CJ) mRNA. The following applies: Homo sapiens, Tables 4A/4B, read-out: Target C (IC50, decrease in CJ mRNA, gene panel). The method, boiled down:
(§2)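 First, A673 cells adhered 24 h before dosing, while K562 cells were plated and dosed directly. Both lines were then exposed to compound for 24 h at 37 °C, 5% CO2, top concentration 10 uM. Finally, lysates underwent RT-qPCR of the canonical junction, with ΔΔCt-based relative quantification.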

Experiment [2] concerns HTT mRNA. The experiment can be described thus: Splicing RT-qPCR gene panel, HTT canonical junction (CJ) mRNA. The note with it: Homo sapiens, Tables 4A/4B, read-out: HTT (IC50, decrease in CJ mRNA, gene panel). In outline: as §2
The subject of the next experiment is SMN2 mRNA. In words: Splicing RT-qPCR gene panel, SMN2 canonical junction (CJ) mRNA. The note with it: Homo sapiens, Tables 4A/4B, read-out: SMN2 (IC50, decrease in CJ mRNA, gene panel). The method, boiled down:
as §2

Setting [3] is: Table 3B, canonical junction mRNA, RT-qPCR, read-out: MYB CJ (IC50, decrease in CJ mRNA).
The mark [4] stands for this setting: Tables 4A/4B, canonical junction qPCR panel, read-out: MYB (IC50, decrease in CJ mRNA, gene panel).

The term AC50 denotes the midpoint of the concentration-response curve, whichever way the signal moves. The IC50 is the concentration that inhibits the measured activity by half.

Consider `CCNC1CCN(c2ccc(C(=O)Nc3cc(F)c4nc(C)cn4c3)c3nc(CC)cn23)C1` (centres unmarked) [Compound 942], for which the concentration at half-maximal activity (AC50) in the experiment with HTT mRNA [1] lay within 1 to 10 µM; in the experiment with MYB mRNA (Table 3B, RT-qPCR), 0.1 to 1 µM. Also, the IC50 with HTT mRNA [1] was 0.1 to 1 µM; with MYB mRNA (setting [3]), 0.1 to 1 µM; in the experiment on MYB mRNA (setting [4]) it was 0.1 to 1 µM; in the experiment with Target C mRNA it was 1 to 10 µM; with HTT mRNA [2], 0.1 to 1 µM; in the experiment on SMN2 mRNA it was under 0.1 µM.
Turning to `CCc1cn2c(N3CCNCC3)ccc(C(=O)Nc3cc(F)c4nc(C)cn4c3)c2n1` [Compound 943], the concentration at half-maximal activity (AC50) in the experiment with HTT mRNA [1] is 1 to 10 µM; in the experiment with MYB mRNA (Table 3B, RT-qPCR), under 0.1 µM. Besides, the IC50 in the experiment with HTT mRNA [1] was 0.1 to 1 µM; in the experiment with MYB mRNA (setting [3]), under 0.1 µM; in the experiment with MYB mRNA (setting [4]), under 0.1 µM; in the experiment on Target C mRNA, 1 to 10 µM; in the experiment with HTT mRNA [2], 0.1 to 1 µM; with SMN2 mRNA, under 0.1 µM.
`CCNC1CCN(c2ccc(C(=O)Nc3cc(F)c4nc(C)cn4c3)c3nc(CC)sc23)C1` (centres unmarked) [Compound 944]: the half-maximal activity concentration (AC50) with HTT mRNA [1] lay within 1 to 10 µM; with MYB mRNA (Table 3B, RT-qPCR) it was 0.1 to 1 µM. The IC50 in the experiment on HTT mRNA [1] is 1 to 10 µM; in the experiment on MYB mRNA (setting [3]) it was 0.1 to 1 µM; in the experiment with MYB mRNA (setting [4]) it was 0.1 to 1 µM; in the experiment on Target C mRNA, 1 to 10 µM; in the experiment on HTT mRNA [2], 1 to 10 µM; in the experiment with SMN2 mRNA it was under 0.1 µM.
Regarding `CCc1nc2c(C(=O)Nc3cc(F)c4nc(C)cn4c3)ccc(N3CCNCC3)c2s1` [Compound 945], the concentration at half-maximal activity (AC50) is 1 to 10 µM in the experiment with HTT mRNA [1] and under 0.1 µM in the experiment with MYB mRNA (Table 3B, RT-qPCR). Further, the half-inhibitory concentration (IC50) was 1 to 10 µM in the experiment on HTT mRNA [1]; under 0.1 µM with MYB mRNA (setting [3]); under 0.1 µM in the experiment on MYB mRNA (setting [4]); 1 to 10 µM in the experiment with Target C mRNA; 1 to 10 µM in the experiment with HTT mRNA [2]; under 0.1 µM in the experiment on SMN2 mRNA.
Regarding `Cc1cn2cc(NC(=O)c3ccc(N4CCNCC4)c4nc(C)nn34)cc(F)c2n1` [Compound 946], the half-maximal activity concentration (AC50) with HTT mRNA [1] is 0.1 to 1 µM; in the experiment on MYB mRNA (Table 3B, RT-qPCR) it was under 0.1 µM. The half-inhibitory concentration (IC50) with HTT mRNA [1] was under 0.1 µM; with MYB mRNA (setting [3]), under 0.1 µM; in the experiment on MYB mRNA (setting [4]), under 0.1 µM; in the experiment with Target C mRNA it was 0.1 to 1 µM; in the experiment on HTT mRNA [2] it was under 0.1 µM; with SMN2 mRNA, under 0.1 µM.
As for `COc1c(NC(=O)c2ccc(N3CCNCC3)c3nc(C)nn23)cn2cc(C)nc2c1F` [Compound 949], the concentration at half-maximal activity (AC50) with HTT mRNA [1] was under 0.1 µM; with MYB mRNA (Table 3B, RT-qPCR), under 0.1 µM. The 50% inhibitory concentration (IC50) in the experiment on HTT mRNA [1], in the experiment with MYB mRNA (setting [3]), in the experiment with MYB mRNA (setting [4]), in the experiment on Target C mRNA, in the experiment on HTT mRNA [2] and in the experiment on SMN2 mRNA was under 0.1 µM in each case.
Turning to `CCn1cc2c(N3CCNCC3)ncc(C(=O)Nc3cc(F)c4nc(C)cn4c3)c2n1` [Compound 950], the half-maximal activity concentration (AC50) lay within 0.1 to 1 µM in the experiment with HTT mRNA [1] and 0.1 to 1 µM in the experiment on MYB mRNA (Table 3B, RT-qPCR). The IC50 is 0.1 to 1 µM in the experiment with HTT mRNA [1]; under 0.1 µM with MYB mRNA (setting [3]); under 0.1 µM in the experiment with MYB mRNA (setting [4]); over 10 µM in the experiment on Target C mRNA; 0.1 to 1 µM with HTT mRNA [2]; under 0.1 µM in the experiment with SMN2 mRNA.
For the compound `CCn1cc2c(N3C[C@@H](C)N[C@@H](C)C3)ncc(C(=O)Nc3cc(F)c4nc(C)cn4c3)c2n1` [Compound 952], the AC50 in the experiment on HTT mRNA [1] fell in the range of 0.1 to 1 µM; in the experiment on MYB mRNA (Table 3B, RT-qPCR), 0.1 to 1 µM. Besides, the IC50 is 0.1 to 1 µM in the experiment on HTT mRNA [1]; 0.1 to 1 µM with MYB mRNA (setting [3]); 0.1 to 1 µM in the experiment with MYB mRNA (setting [4]); 0.1 to 1 µM in the experiment on Target C mRNA; 0.1 to 1 µM in the experiment on HTT mRNA [2]; under 0.1 µM with SMN2 mRNA.
Regarding `CCn1cc2c(N3CCC(NC)C3)ncc(C(=O)Nc3cc(F)c4nc(C)cn4c3)c2n1` (centres unmarked) [Compound 953], the AC50 with HTT mRNA [1] fell in the range of 1 to 10 µM; in the experiment with MYB mRNA (Table 3B, RT-qPCR) it was 0.1 to 1 µM. Besides, the IC50 with HTT mRNA [1] is 1 to 10 µM; in the experiment on MYB mRNA (setting [3]), 0.1 to 1 µM; with MYB mRNA (setting [4]), 0.1 to 1 µM; with Target C mRNA, 1 to 10 µM; in the experiment with HTT mRNA [2] it was 1 to 10 µM; in the experiment on SMN2 mRNA it was under 0.1 µM.
As to `CCn1cc2c(N3CCN(C)CC3)ncc(C(=O)Nc3cc(F)c4nc(C)cn4c3)c2n1` [Compound 954], the AC50 in the experiment with HTT mRNA [1] was 1 to 10 µM; with MYB mRNA (Table 3B, RT-qPCR), 0.1 to 1 µM. Also, the half-inhibitory concentration (IC50) in the experiment with HTT mRNA [1] is 1 to 10 µM; in the experiment with MYB mRNA (setting [3]) it was 0.1 to 1 µM; in the experiment on MYB mRNA (setting [4]) it was 0.1 to 1 µM; in the experiment on Target C mRNA, 1 to 10 µM; in the experiment with HTT mRNA [2], 1 to 10 µM; in the experiment on SMN2 mRNA it was under 0.1 µM.
